pIC50, pKd: −log10 of the molar value. Calls of active or inactive are those of the source. The calls are words filed in the database; no cut-off is given here.
How the values were obtained:
[1] = tested on: MDA-MB-231; assay: Induction of cell cycle arrest in human MDA-MB-231 cells assessed as accumulation of cells at G2/M phase at 0.5 to 1.5 uM measured after 48 hrs by 7-aminoactinomycin D/RNase staining based flow cytometry analysis (reference value: 14.3%); type: functional; settings: dose 0.5-1.5 µM
[2] = tested on: MDA-MB-231; assay: Antitumor activity against human MDA-MB-231 cells xenografted in female Balb/c mouse assessed as reduction in tumor volume at 5 mg/kg, iv administered via tail vein every 2 days for 16 days relative to control; type: functional; design: scale not given: the % may be the effect or the level left; settings: time 16 day
[3] = Upregulation of CCNB2 gene expression in human MDA-MB-231 cells assessed as fold change at 1 uM measured after 48 hrs by RNA-seq analysis relative to control; type: functional
[4] = Upregulation of CCND2 gene expression in human MDA-MB-231 cells assessed as fold change at 1 uM measured after 48 hrs by RNA-seq analysis relative to control; type: functional
[5] = tested on: MDA-MB-231; assay: Antitumor activity against human MDA-MB-231 cells xenografted in female Balb/c mouse assessed as reduction in tumor weight at 2 mg/kg, iv administered via tail vein every 2 days for 16 days relative to control; type: functional; design: scale not given: the % may be the effect or the level left; settings: time 16 day
[6] = Upregulation of RRAS gene expression in human MDA-MB-231 cells assessed as fold change at 1 uM measured after 48 hrs by RNA-seq analysis relative to control; type: functional
[7] = Upregulation of MAP1LC3B gene expression in human MDA-MB-231 cells assessed as fold change at 1 uM measured after 48 hrs by RNA-seq analysis relative to control; type: functional
[8] = Selectivity ratio of binding affinity to human TERT G4 DNA to binding affinity to Ds26 duplex DNA (unknown origin)
[9] = tested on: PC-3; assay: Cytotoxicity against telomerase-positive human PC-3 cells assessed as inhibition of cell growth incubated for 48 hrs by MTT assay; type: functional, cell-based; settings: PC-3, 48 h
[10] = tested on: Quadruplex DNA; assay: Binding affinity to Bcl-2 G4 DNA (unknown origin) assessed as change in enthalpy at 400 uM by ITC analysis; type: nucleic-acid assay
[11] = Upregulation of ZFP36L1 gene expression in human MDA-MB-231 cells assessed as fold change at 1 uM measured after 48 hrs by RNA-seq analysis relative to control; type: functional
[12] = tested on: MDA-MB-231; assay: Cytotoxicity against human MDA-MB-231 cells transfected with hTERT-pcDNA3.1(+)-C-eBFP overexpressing hTERT assessed as inhibition of cell growth measured after 48 hrs by MTT assay; type: functional, cell-based; settings: MDA-MB-231, 48 h
[13] = tested on: Quadruplex DNA; assay: Binding affinity to human TERT G4 DNA assessed as adduct formation by measuring appearance of new peak at 5 uM by ultraviolet spectrophotometric titration method; type: nucleic-acid assay
[14] = Upregulation of NFATC4 gene expression in human MDA-MB-231 cells assessed as fold change at 1 uM measured after 48 hrs by RNA-seq analysis relative to control; type: functional
[15] = Upregulation of IRS1 gene expression in human MDA-MB-231 cells assessed as fold change at 1 uM measured after 48 hrs by RNA-seq analysis relative to control; type: functional
[16] = Toxicity in female Balb/c nude mouse xenografted with human MDA-MB-231 cells assessed as change in granulocyte count at 2 to 5 mg/kg, iv administered via tail vein every 2 days for 16 days; type: organism-based; settings: in vivo, 384 h, dose 2-5 mg/kg, time 16 day
[17] = tested on: MDA-MB-231; assay: Downregulation of ND5 gene expression in human MDA-MB-231 cells at 1 uM measured after 48 hrs by RNA-seq analysis; type: functional, cell-based
[18] = Toxicity in female Balb/c nude mouse xenografted with human MDA-MB-231 cells assessed as change in WBC count at 2 to 5 mg/kg, iv administered via tail vein every 2 days for 16 days; type: organism-based; settings: in vivo, 384 h, dose 2-5 mg/kg, time 16 day
[19] = tested on: MDA-MB-231; assay: Downregulation of hTERT mRNA expression in human MDA-MB-231 cells measured after 48 hrs by qRT-PCR analysis; type: functional, cell-based; settings: dose 0-1.5 µM
[20] = Toxicity in female Balb/c nude mouse xenografted with human MDA-MB-231 cells assessed as pathological changes in kidney at 2 to 5 mg/kg, iv administered via tail vein every 2 days for 16 days by H and E staining based analysis; type: organism-based; settings: in vivo, 384 h, dose 2-5 mg/kg, time 16 day
[21] = Upregulation of SGK1 gene expression in human MDA-MB-231 cells assessed as fold change at 1 uM measured after 48 hrs by RNA-seq analysis relative to control; type: functional
[22] = tested on: DNA; assay: Binding affinity to DNA in telomerase-positive live human MDA-MB-231 cells at 5 uM preincubated for 10 mins followed by washout and RNase A addition measured after 2 hrs by Hoechst 33342 staining based confocal microscopic analysis; type: cell-based
[23] = tested on: DNA; assay: Binding affinity to Dt21 ssDNA (unknown origin) assessed as thermal stability by measuring change in melting temperature at 400 uM […]; type: nucleic-acid assay
[24] = target: DNA; assay: Binding affinity to Ds26 duplex DNA (unknown origin) assessed as dissociation constant by ITC analysis; type: nucleic-acid assay
[25] = tested on: U2OS; assay: Cytotoxicity against alternative lengthening of telomere-positive human U2OS cells assessed as inhibition of cell growth incubated for 48 hrs by MTT assay; type: functional, cell-based
[26] = tested on: MDA-MB-231; assay: Induction of oxidative stress in human MDA-MB-231 cells assessed as cellular DNA fragmentation at 0 to 1.5 uM measured after 48 hrs by comet assay; type: functional, cell-based; settings: dose 0-1.5 µM
[27] = tested on: Quadruplex DNA; assay: Binding affinity to RET G4 DNA (unknown origin) assessed as thermal stability by measuring change in melting temperature at 400 uM […]; type: nucleic-acid assay
[28] = tested on: MDA-MB-231; assay: Cytotoxicity against telomerase-positive human MDA-MB-231 cells assessed as inhibition of cell growth incubated for 48 hrs by MTT assay; type: functional, cell-based; settings: MDA-MB-231, 48 h
[29] = tested on: MDA-MB-231; assay: Inhibition of hTERT expression at transcriptional level in human MDA-MB-231 cells at 1 uM measured after 48 hrs by RNA-seq analysis; type: functional, cell-based
[30] = Selectivity ratio of binding affinity to human TERT G4 DNA to binding affinity to Bcl-2 G4 DNA (unknown origin)
[31] = species: Homo sapiens; assay: Binding affinity to antisense i-hTERT DNA assessed as change in gibbs free energy at 400 uM by ITC analysis
[32] = Toxicity in female Balb/c nude mouse xenografted with human MDA-MB-231 cells assessed as change in uric acid level at 2 to 5 mg/kg, iv administered via tail vein every 2 days for 16 days; type: organism-based; settings: in vivo, 384 h, dose 2-5 mg/kg, time 16 day
[33] = Toxicity in female Balb/c nude mouse xenografted with human MDA-MB-231 cells assessed as signs of discomfort at 2 to 5 mg/kg, iv administered via tail vein every 2 days for 16 days; type: organism-based; settings: in vivo, 384 h, dose 2-5 mg/kg, time 16 day
[34] = tested on: Quadruplex DNA; assay: Binding affinity to Bcl-2 G4 DNA (unknown origin) assessed as thermal stability by measuring change in melting temperature at 400 uM […]; type: nucleic-acid assay
[35] = tested on: MDA-MB-231; assay: Cytotoxicity against human MDA-MB-231 cells without hTERT overexpression assessed as inhibition of cell growth measured after 48 hrs by MTT assay; type: functional, cell-based; settings: MDA-MB-231, 48 h
[36] = tested on: Quadruplex DNA; assay: Binding affinity to VEGF G4 DNA (unknown origin) assessed as thermal stability by measuring change in melting temperature at 400 uM […]; type: nucleic-acid assay

## C[n+]1c(/C=C/c2c[nH]c3ccccc23)cc(/C=C2\Sc3ccccc3N2CCCN2CCC(C(F)(F)F)CC2)c2ccccc21.[I-]
[1]
  Activity: 32%
[2]
  Activity: 78.5%
[3]
  fold change (FC): >2
[4]
  fold change (FC): >2
[5]
  Activity: 48.7%
[6]
  fold change (FC): >2
[7]
  fold change (FC): >2
[8]
  Selectivity ratio: 3
[9]
  pIC50: 5.60
[10]
  deltaH: -2.34 kcal/mol
[11]
  fold change (FC): >2
[12]
  pIC50: 5.48
[13]
  Activity: Active
[14]
  fold change (FC): >2
[15]
  fold change (FC): >2
[16]
  Activity: Non-Toxic
[17]
  Activity: Active
[18]
  Activity: Non-Toxic
[19]
  Activity: Dose-Dependent Effect
[20]
  Activity: Non-Toxic
[21]
  fold change (FC): >2
[22]
  Activity: Active
[23]
  ΔTm: -2.51 °C
[24]
  pKd: 4.72
[25]
  pIC50: 5.41
[26]
  Activity: Active
[27]
  ΔTm: 0.96 °C
[28]
  pIC50: 6.00
[29]
  inhibition: Active
[30]
  Selectivity ratio: 2
[31]
  deltaG: -7.58 kcal/mol
[32]
  Activity: Non-Toxic
[33]
  Activity: Non-Toxic
[34]
  ΔTm: 6.4 °C
[35]
  pIC50: 5.92
[36]
  ΔTm: 0.72 °C

Source: ChEMBL document CHEMBL5550185, “Targeting hTERT Promoter G-Quadruplex DNA Structures with Small-Molecule Ligand to Downregulate hTERT Expression for Triple-Negative Breast Cancer Therapy” (J Med Chem, 2024)
